Measurements reported in the NIST ThermoML archive (doi:10.1021/je060353z).
± gives the expanded uncertainty stated by the source.

Assay: xn = mol fraction of the nth substance listed
Conditions: 101 kPa, Liquid

Clc1ccccc1 [chlorobenzene] + CCCCCCCO
Conditions | mass density [kg/m3] | speed of sound [m/s] | viscosity [mPa·s]
298.15 K, x1 = 0.1306 | 846.348 ± 0.4 | 1316.7 ± 1.4 | 4.469 ± 0.044
298.15 K, x1 = 0.2566 | 874.819 ± 0.36 | 1305.5 ± 1.4 | 3.335 ± 0.035
298.15 K, x1 = 0.3866 | 906.448 ± 0.31 | 1293.8 ± 1.4 | 2.453 ± 0.027
298.15 K, x1 = 0.4947 | 934.739 ± 0.27 | 1284 ± 1.4 | 1.911 ± 0.023
298.15 K, x1 = 0.5878 | 960.727 ± 0.23 | 1276 ± 1.4 | 1.557 ± 0.02
298.15 K, x1 = 0.6827 | 988.992 ± 0.19 | 1269.1 ± 1.4 | 1.273 ± 0.018
298.15 K, x1 = 0.7682 | 1016.23 ± 0.2 | 1264.6 ± 1.4 | 1.073 ± 0.016
298.15 K, x1 = 0.8521 | 1044.88 ± 0.25 | 1262.7 ± 1.4 | 0.918 ± 0.015
298.15 K, x1 = 0.9255 | 1071.67 ± 0.3 | 1263.8 ± 1.4 | 0.817 ± 0.015
298.15 K, x1 = 1 | 1100.97 ± 0.34 | 1268 ± 1.4 | 0.757 ± 0.014
303.15 K, x1 = 0.1306 | 842.689 ± 0.41 | 1300 ± 1.4 | 3.832 ± 0.039
303.15 K, x1 = 0.2566 | 870.964 ± 0.36 | 1289 ± 1.4 | 2.896 ± 0.031
303.15 K, x1 = 0.3866 | 902.362 ± 0.32 | 1277.6 ± 1.4 | 2.164 ± 0.025
303.15 K, x1 = 0.4947 | 930.425 ± 0.28 | 1268.2 ± 1.4 | 1.709 ± 0.021
303.15 K, x1 = 0.5878 | 956.224 ± 0.24 | 1260.7 ± 1.4 | 1.406 ± 0.019
303.15 K, x1 = 0.6827 | 984.268 ± 0.2 | 1253.8 ± 1.4 | 1.16 ± 0.017
303.15 K, x1 = 0.7682 | 1011.3 ± 0.2 | 1248.7 ± 1.4 | 0.984 ± 0.016
303.15 K, x1 = 0.8521 | 1039.69 ± 0.24 | 1245.4 ± 1.4 | 0.85 ± 0.015
303.15 K, x1 = 0.9255 | 1066.23 ± 0.29 | 1245.5 ± 1.4 | 0.764 ± 0.014
303.15 K, x1 = 1 | 1095.1 ± 0.33 | 1249.4 ± 1.4 | 0.714 ± 0.014
308.15 K, x1 = 0.1306 | 838.9 ± 0.41 | 1283.3 ± 1.4 | 3.311 ± 0.034
308.15 K, x1 = 0.2566 | 866.926 ± 0.37 | 1272.1 ± 1.4 | 2.532 ± 0.028
308.15 K, x1 = 0.3866 | 898.052 ± 0.33 | 1260.4 ± 1.4 | 1.922 ± 0.023
308.15 K, x1 = 0.4947 | 925.892 ± 0.28 | 1250.2 ± 1.4 | 1.543 ± 0.02
308.15 K, x1 = 0.5878 | 951.47 ± 0.25 | 1242 ± 1.4 | 1.283 ± 0.018
308.15 K, x1 = 0.6827 | 979.252 ± 0.21 | 1235 ± 1.4 | 1.059 ± 0.016
308.15 K, x1 = 0.7682 | 1006.02 ± 0.19 | 1230.1 ± 1.4 | 0.915 ± 0.015
308.15 K, x1 = 0.8521 | 1034.12 ± 0.23 | 1227.6 ± 1.4 | 0.816 ± 0.015
308.15 K, x1 = 0.9255 | 1060.42 ± 0.28 | 1228 ± 1.4 | 0.733 ± 0.014
308.15 K, x1 = 1 | 1089.08 ± 0.32 | 1230.9 ± 1.4 | 0.677 ± 0.014
313.15 K, x1 = 0.1306 | 835.146 ± 0.42 | 1266.5 ± 1.4 | 2.872 ± 0.031
313.15 K, x1 = 0.2566 | 862.967 ± 0.38 | 1255.6 ± 1.4 | 2.219 ± 0.026
313.15 K, x1 = 0.3866 | 893.905 ± 0.33 | 1243.8 ± 1.4 | 1.705 ± 0.021
313.15 K, x1 = 0.4947 | 921.55 ± 0.29 | 1233.6 ± 1.4 | 1.378 ± 0.019
313.15 K, x1 = 0.5878 | 946.95 ± 0.25 | 1225.3 ± 1.4 | 1.135 ± 0.017
313.15 K, x1 = 0.6827 | 974.575 ± 0.21 | 1217.9 ± 1.4 | 0.953 ± 0.016
313.15 K, x1 = 0.7682 | 1001.13 ± 0.18 | 1212.9 ± 1.4 | 0.822 ± 0.015
313.15 K, x1 = 0.8521 | 1029.02 ± 0.23 | 1209.9 ± 1.4 | 0.723 ± 0.014
313.15 K, x1 = 0.9255 | 1055.08 ± 0.27 | 1209.7 ± 1.4 | 0.662 ± 0.014
313.15 K, x1 = 1 | 1083.66 ± 0.31 | 1212.6 ± 1.4 | 0.617 ± 0.013

Clc1ccccc1 [chlorobenzene] + CCCCCCO
Conditions | mass density [kg/m3] | speed of sound [m/s] | viscosity [mPa·s]
298.15 K, x1 = 0.1144 | 842.629 ± 0.41 | 1297.7 ± 1.4 | 3.576 ± 0.037
298.15 K, x1 = 0.2338 | 872.274 ± 0.36 | 1289.8 ± 1.4 | 2.746 ± 0.03
298.15 K, x1 = 0.3573 | 904.193 ± 0.32 | 1281.6 ± 1.4 | 2.107 ± 0.025
298.15 K, x1 = 0.4628 | 932.67 ± 0.27 | 1274.8 ± 1.4 | 1.699 ± 0.021
298.15 K, x1 = 0.5568 | 959.077 ± 0.24 | 1269.2 ± 1.4 | 1.417 ± 0.019
298.15 K, x1 = 0.6542 | 987.534 ± 0.2 | 1264.3 ± 1.4 | 1.184 ± 0.017
298.15 K, x1 = 0.7457 | 1015.51 ± 0.2 | 1260.9 ± 1.4 | 1.008 ± 0.016
298.15 K, x1 = 0.8353 | 1044.18 ± 0.25 | 1259.3 ± 1.4 | 0.873 ± 0.015
298.15 K, x1 = 0.9171 | 1071.62 ± 0.3 | 1260.9 ± 1.4 | 0.788 ± 0.015
298.15 K, x1 = 1 | 1100.97 ± 0.34 | 1268 ± 1.4 | 0.757 ± 0.014
303.15 K, x1 = 0.1144 | 839.289 ± 0.41 | 1280.6 ± 1.4 | 3.096 ± 0.033
303.15 K, x1 = 0.2338 | 868.705 ± 0.37 | 1272.5 ± 1.4 | 2.414 ± 0.027
303.15 K, x1 = 0.3573 | 900.355 ± 0.32 | 1264 ± 1.4 | 1.87 ± 0.023
303.15 K, x1 = 0.4628 | 928.591 ± 0.28 | 1257.1 ± 1.4 | 1.515 ± 0.02
303.15 K, x1 = 0.5568 | 954.767 ± 0.24 | 1251.6 ± 1.4 | 1.274 ± 0.018
303.15 K, x1 = 0.6542 | 982.986 ± 0.2 | 1246.6 ± 1.4 | 1.079 ± 0.016
303.15 K, x1 = 0.7457 | 1010.71 ± 0.2 | 1243.1 ± 1.4 | 0.935 ± 0.015
303.15 K, x1 = 0.8353 | 1039.12 ± 0.24 | 1241.5 ± 1.4 | 0.824 ± 0.015
303.15 K, x1 = 0.9171 | 1066.27 ± 0.29 | 1243.2 ± 1.4 | 0.752 ± 0.014
303.15 K, x1 = 1 | 1095.1 ± 0.33 | 1249.4 ± 1.4 | 0.714 ± 0.014
308.15 K, x1 = 0.1144 | 835.421 ± 0.42 | 1263.6 ± 1.4 | 2.695 ± 0.029
308.15 K, x1 = 0.2338 | 864.604 ± 0.37 | 1255.4 ± 1.4 | 2.123 ± 0.025
308.15 K, x1 = 0.3573 | 895.988 ± 0.33 | 1246.7 ± 1.4 | 1.665 ± 0.021
308.15 K, x1 = 0.4628 | 923.985 ± 0.29 | 1239.7 ± 1.4 | 1.369 ± 0.019
308.15 K, x1 = 0.5568 | 949.942 ± 0.25 | 1233.9 ± 1.4 | 1.165 ± 0.017
308.15 K, x1 = 0.6542 | 977.948 ± 0.21 | 1228.9 ± 1.4 | 0.997 ± 0.016
308.15 K, x1 = 0.7457 | 1005.42 ± 0.19 | 1225.4 ± 1.4 | 0.87 ± 0.015
308.15 K, x1 = 0.8353 | 1033.55 ± 0.23 | 1224.3 ± 1.4 | 0.772 ± 0.014
308.15 K, x1 = 0.9171 | 1060.41 ± 0.28 | 1225.8 ± 1.4 | 0.711 ± 0.014
308.15 K, x1 = 1 | 1089.08 ± 0.32 | 1230.9 ± 1.4 | 0.677 ± 0.014
313.15 K, x1 = 0.1144 | 831.574 ± 0.42 | 1246.5 ± 1.4 | 2.35 ± 0.027
313.15 K, x1 = 0.2338 | 860.561 ± 0.38 | 1238.5 ± 1.4 | 1.865 ± 0.023
313.15 K, x1 = 0.3573 | 891.747 ± 0.33 | 1229.8 ± 1.4 | 1.478 ± 0.02
313.15 K, x1 = 0.4628 | 919.571 ± 0.29 | 1222.9 ± 1.4 | 1.223 ± 0.018
313.15 K, x1 = 0.5568 | 945.388 ± 0.26 | 1216.7 ± 1.4 | 1.044 ± 0.016
313.15 K, x1 = 0.6542 | 973.227 ± 0.22 | 1211.6 ± 1.4 | 0.896 ± 0.015
313.15 K, x1 = 0.7457 | 1000.53 ± 0.18 | 1207.9 ± 1.3 | 0.78 ± 0.014
313.15 K, x1 = 0.8353 | 1028.46 ± 0.22 | 1206.6 ± 1.3 | 0.692 ± 0.014
313.15 K, x1 = 0.9171 | 1055.09 ± 0.27 | 1208.2 ± 1.3 | 0.637 ± 0.014
313.15 K, x1 = 1 | 1083.66 ± 0.31 | 1212.6 ± 1.4 | 0.617 ± 0.013

CCCCCCCCCCO [decan-1-ol] + Clc1ccccc1
x2 = 0
Conditions | mass density [kg/m3] | speed of sound [m/s] | viscosity [mPa·s]
298.15 K | 826.762 ± 0.43 | 1380 ± 1.5 | 11.83 ± 0.1
303.15 K | 822.853 ± 0.43 | 1365 ± 1.5 | 9.754 ± 0.087
308.15 K | 819.427 ± 0.44 | 1346.1 ± 1.4 | 8.135 ± 0.074
313.15 K | 815.983 ± 0.45 | 1329.3 ± 1.4 | 6.842 ± 0.063

CCCCCCCO [heptan-1-ol] + Clc1ccccc1
x2 = 0
Conditions | mass density [kg/m3] | speed of sound [m/s] | viscosity [mPa·s]
298.15 K | 818.732 ± 0.44 | 1327.3 ± 1.4 | 5.944 ± 0.056
303.15 K | 815.287 ± 0.45 | 1313.6 ± 1.4 | 5.069 ± 0.049
308.15 K | 811.737 ± 0.45 | 1293.9 ± 1.4 | 4.333 ± 0.043
313.15 K | 808.162 ± 0.46 | 1277.2 ± 1.4 | 3.726 ± 0.038

CCCCCCO [hexan-1-ol] + Clc1ccccc1
x2 = 0
Conditions | mass density [kg/m3] | speed of sound [m/s] | viscosity [mPa·s]
298.15 K | 815.23 ± 0.45 | 1304.7 ± 1.4 | 4.594 ± 0.045
303.15 K | 812.118 ± 0.45 | 1287.9 ± 1.4 | 3.887 ± 0.039
308.15 K | 808.482 ± 0.46 | 1271.1 ± 1.4 | 3.359 ± 0.035
313.15 K | 804.811 ± 0.46 | 1254.5 ± 1.4 | 2.914 ± 0.031
